US8921385B2, “5-substituted quinazolinone derivatives and compositions comprising and methods of using the same” (Celgene Corporation, priority 2006, dated 2014)
Structures can show the parent of a compound that is named as a salt.

Which melting point does the source give for Cc1nc2cccc(NC(=O)CN(C)C)c2c(=O)n1C1CCC(=O)NC1=O (stereo not shown) (as salt: chloride) [Example 6.25, 2-Dimethylamino-N-[3-(2,6-Dioxo-Piperidin-3-yl)-2-Methyl-4-Oxo-3,4-Dihydro-Quinazolin-5-yl]-Acetamide Hydrogen Chloride] here?
The melting point was 256 to 258 °C.

Which melting point does the source give for Cc1nc2cccc(CNC(=O)c3cccc(C(F)(F)F)c3)c2c(=O)n1C1CCC(=O)NC1=O (stereo not shown) [Example 6.57, N-[3-(2,6-Dioxo-Piperidin-3-yl)-2-Methyl-4-Oxo-3,4-Dihydro-Quinazolin-5-ylmethyl]-3-Trifluoromethyl-Benzamide] here?
Its melting point is 233 to 235 °C.

With Cc1nc2cccc(CN)c2c(=O)n1C1CCC(=O)NC1=O.Cl (stereo not shown) as the compound, how does the melting point read?
Its melting point is 256 °C (dec.).

With Cc1cccc2nc(O)n(C3CCC(=O)NC3=O)c(=O)c12 (stereo not shown) [Example 6.5, 3-(2-Hydroxy-5-Methyl-4-Oxo-4H-Quinazolin-3-yl)-Piperidine-2,6-Dione] as the compound, how does the melting point read?
The melting point was 373 to 375 °C.

For CCOC(=O)Nc1cccc2nc(C)n(C3CCC(=O)NC3=O)c(=O)c12 (stereo not shown) [Example 6.27, [3-(2,6-Dioxo-Piperidin-3-yl)-2-Methyl-4-Oxo-3,4-Dihydro-Quinazolin-5-yl]-Carbamic Acid Ethyl Ester], which melting point is on record?
Its melting point is 284 to 286 °C (dec.).

For CCCCCCC(=O)Nc1cccc2nc(C)n(C3CCC(=O)NC3=O)c(=O)c12 (stereo not shown) [Example 6.23, Heptanoic Acid [3-(2,6-Dioxo-Piperidin-3-yl)-2-Methyl-4-Oxo-3,4-Dihydro-Quinazolin-5-yl]-Amide], which melting point is on record?
Its melting point is 230 to 232 °C.

For Cc1nc2cccc(CNC(=O)c3ccccn3)c2c(=O)n1C1CCC(=O)NC1=O (stereo not shown) [Example 6.39, Pyridine-2-Carboxylic Acid [3-(2,6-Dioxo-Piperidin-3-yl)-2-Methyl-4-Oxo-3,4-Dihydro-Quinazolin-5-ylmethyl]-Amide], which melting point is on record?
The melting point was 261 to 263 °C.
